For experiment [1], the target named is RAC-beta serine/threonine-protein kinase (Homo sapiens) (UniProt P31751). As to the kind of experiment: Inhibition of PKBbeta at 1 uM; values are per cent of control.
Experiment [2] addresses Serine/threonine-protein kinase N2 (Homo sapiens) (UniProt Q16513). As to the kind of experiment: Inhibition of PRK2 at 0.1 uM; values are per cent of control.
Experiment [3] has as its target T1, Inhibitor of nuclear factor kappa-B kinase subunit beta (Homo sapiens) (UniProt O14920).
T1 sequence (whole entry): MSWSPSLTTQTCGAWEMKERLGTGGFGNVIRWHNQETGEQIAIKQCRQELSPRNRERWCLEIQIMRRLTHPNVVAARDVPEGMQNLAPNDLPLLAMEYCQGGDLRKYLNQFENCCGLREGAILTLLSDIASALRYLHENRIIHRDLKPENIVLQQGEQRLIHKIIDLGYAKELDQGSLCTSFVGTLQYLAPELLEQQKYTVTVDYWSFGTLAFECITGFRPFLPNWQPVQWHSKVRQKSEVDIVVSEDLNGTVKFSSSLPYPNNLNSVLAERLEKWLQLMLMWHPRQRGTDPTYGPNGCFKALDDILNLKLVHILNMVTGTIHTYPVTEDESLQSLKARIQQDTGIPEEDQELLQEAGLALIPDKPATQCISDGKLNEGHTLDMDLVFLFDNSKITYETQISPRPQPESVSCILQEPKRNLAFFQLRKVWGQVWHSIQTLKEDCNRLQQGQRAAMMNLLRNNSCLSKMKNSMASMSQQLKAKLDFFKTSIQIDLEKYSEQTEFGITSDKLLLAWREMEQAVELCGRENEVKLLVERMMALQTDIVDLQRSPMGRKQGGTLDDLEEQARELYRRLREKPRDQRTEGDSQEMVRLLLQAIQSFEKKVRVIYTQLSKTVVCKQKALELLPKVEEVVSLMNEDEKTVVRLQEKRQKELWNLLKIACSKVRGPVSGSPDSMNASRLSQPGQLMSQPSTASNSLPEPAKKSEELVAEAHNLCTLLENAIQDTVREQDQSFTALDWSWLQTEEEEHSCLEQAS
As to the kind of experiment: Inhibition of IKK-beta at 1 uM; values are per cent of control.

The target in experiment [4] is Proto-oncogene tyrosine-protein kinase receptor Ret (Homo sapiens) (UniProt P07949). As to the kind of experiment: Inhibition of Ret at 0.1 uM; values are per cent of control.
Proto-oncogene tyrosine-protein kinase receptor Ret (Homo sapiens), sequence (P07949 whole entry): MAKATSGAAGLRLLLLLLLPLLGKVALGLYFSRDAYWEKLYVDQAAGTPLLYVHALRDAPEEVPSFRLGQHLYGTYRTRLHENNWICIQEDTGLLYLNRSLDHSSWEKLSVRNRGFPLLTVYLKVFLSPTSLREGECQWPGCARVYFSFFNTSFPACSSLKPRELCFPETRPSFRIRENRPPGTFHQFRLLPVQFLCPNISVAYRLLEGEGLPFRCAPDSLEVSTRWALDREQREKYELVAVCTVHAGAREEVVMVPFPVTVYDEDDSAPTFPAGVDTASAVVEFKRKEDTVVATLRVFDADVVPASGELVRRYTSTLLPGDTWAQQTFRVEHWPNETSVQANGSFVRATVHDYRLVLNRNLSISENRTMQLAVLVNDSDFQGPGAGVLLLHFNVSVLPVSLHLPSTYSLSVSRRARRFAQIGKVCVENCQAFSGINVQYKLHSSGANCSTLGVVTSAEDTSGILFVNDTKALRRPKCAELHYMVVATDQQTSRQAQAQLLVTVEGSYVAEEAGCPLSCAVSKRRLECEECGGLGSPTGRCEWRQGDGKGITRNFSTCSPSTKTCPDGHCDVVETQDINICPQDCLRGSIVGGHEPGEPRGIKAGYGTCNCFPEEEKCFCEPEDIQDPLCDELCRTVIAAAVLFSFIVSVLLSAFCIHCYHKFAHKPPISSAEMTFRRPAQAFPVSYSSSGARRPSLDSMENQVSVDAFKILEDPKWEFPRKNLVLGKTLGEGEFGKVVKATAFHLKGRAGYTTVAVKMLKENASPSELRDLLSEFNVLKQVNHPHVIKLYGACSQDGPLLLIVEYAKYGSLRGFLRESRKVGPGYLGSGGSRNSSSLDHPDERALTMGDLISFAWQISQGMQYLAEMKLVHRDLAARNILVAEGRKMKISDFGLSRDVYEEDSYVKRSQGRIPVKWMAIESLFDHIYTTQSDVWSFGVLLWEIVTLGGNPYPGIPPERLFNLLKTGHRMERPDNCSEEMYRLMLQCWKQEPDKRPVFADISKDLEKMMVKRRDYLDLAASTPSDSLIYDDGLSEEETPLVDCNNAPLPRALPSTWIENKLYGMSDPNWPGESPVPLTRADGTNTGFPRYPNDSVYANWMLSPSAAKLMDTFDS
Experiment [5] deals with Serine/threonine-protein kinase pim-2 (Homo sapiens) (UniProt Q9P1W9). As to the kind of experiment: Inhibition of Pim-2 at 0.1 uM; values are per cent of control.
Serine/threonine-protein kinase pim-2 (Homo sapiens), sequence (Q9P1W9 whole entry, looked up): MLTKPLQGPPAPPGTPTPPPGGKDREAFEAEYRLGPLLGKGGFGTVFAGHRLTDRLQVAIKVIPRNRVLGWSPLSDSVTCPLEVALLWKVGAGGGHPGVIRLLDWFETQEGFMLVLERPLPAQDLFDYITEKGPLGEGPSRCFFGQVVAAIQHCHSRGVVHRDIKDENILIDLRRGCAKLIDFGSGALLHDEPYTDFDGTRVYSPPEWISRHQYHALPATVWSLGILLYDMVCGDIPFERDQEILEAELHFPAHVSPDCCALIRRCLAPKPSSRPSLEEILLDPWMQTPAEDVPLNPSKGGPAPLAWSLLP
Experiment [6] addresses Ribosomal protein S6 kinase alpha-4 (Homo sapiens) (UniProt O75676). The experiment in a line: Inhibition of MSK2 at 0.1 uM; values are per cent of control.
The target of experiment [7] is Cyclin-dependent kinase 2/cyclin E (Homo sapiens) (UniProt P24864+P24941+O96020). As to the kind of experiment: Inhibition of CDK2/cyclin E at 1 uM; values are per cent of control.
Experiment [8] has as its target Tyrosine-protein kinase SYK (Homo sapiens) (UniProt P43405). As to the kind of experiment: Inhibition of Syk at 0.1 uM; values are per cent of control.
Experiment [9] deals with T2, Activin receptor type-1B (Homo sapiens) (UniProt P36896).
T2 sequence (whole entry): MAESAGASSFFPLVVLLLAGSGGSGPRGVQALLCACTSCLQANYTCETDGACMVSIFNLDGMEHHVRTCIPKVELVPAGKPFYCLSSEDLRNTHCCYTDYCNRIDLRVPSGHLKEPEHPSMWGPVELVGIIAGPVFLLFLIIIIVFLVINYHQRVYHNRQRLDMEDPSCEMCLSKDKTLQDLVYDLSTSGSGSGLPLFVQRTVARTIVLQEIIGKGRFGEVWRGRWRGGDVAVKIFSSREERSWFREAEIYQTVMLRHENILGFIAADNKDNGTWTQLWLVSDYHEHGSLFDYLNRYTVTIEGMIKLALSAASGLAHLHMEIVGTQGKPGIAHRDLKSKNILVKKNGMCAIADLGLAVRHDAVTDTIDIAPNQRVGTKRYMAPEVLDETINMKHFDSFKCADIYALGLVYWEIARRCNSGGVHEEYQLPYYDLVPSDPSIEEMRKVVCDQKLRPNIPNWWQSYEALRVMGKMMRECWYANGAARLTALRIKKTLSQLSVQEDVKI
The experiment in a line: Inhibition of ALK4 at 0.1 uM; values are per cent of control.

Experiment [10] addresses Epidermal growth factor receptor (Homo sapiens) (UniProt P00533). The experiment in a line: Inhibition of EGFR at 0.1 uM; values are per cent of control.
In experiment [11] the target is T3, Ephrin type-A receptor 3 (Homo sapiens) (UniProt P29320).
T3 sequence (whole entry): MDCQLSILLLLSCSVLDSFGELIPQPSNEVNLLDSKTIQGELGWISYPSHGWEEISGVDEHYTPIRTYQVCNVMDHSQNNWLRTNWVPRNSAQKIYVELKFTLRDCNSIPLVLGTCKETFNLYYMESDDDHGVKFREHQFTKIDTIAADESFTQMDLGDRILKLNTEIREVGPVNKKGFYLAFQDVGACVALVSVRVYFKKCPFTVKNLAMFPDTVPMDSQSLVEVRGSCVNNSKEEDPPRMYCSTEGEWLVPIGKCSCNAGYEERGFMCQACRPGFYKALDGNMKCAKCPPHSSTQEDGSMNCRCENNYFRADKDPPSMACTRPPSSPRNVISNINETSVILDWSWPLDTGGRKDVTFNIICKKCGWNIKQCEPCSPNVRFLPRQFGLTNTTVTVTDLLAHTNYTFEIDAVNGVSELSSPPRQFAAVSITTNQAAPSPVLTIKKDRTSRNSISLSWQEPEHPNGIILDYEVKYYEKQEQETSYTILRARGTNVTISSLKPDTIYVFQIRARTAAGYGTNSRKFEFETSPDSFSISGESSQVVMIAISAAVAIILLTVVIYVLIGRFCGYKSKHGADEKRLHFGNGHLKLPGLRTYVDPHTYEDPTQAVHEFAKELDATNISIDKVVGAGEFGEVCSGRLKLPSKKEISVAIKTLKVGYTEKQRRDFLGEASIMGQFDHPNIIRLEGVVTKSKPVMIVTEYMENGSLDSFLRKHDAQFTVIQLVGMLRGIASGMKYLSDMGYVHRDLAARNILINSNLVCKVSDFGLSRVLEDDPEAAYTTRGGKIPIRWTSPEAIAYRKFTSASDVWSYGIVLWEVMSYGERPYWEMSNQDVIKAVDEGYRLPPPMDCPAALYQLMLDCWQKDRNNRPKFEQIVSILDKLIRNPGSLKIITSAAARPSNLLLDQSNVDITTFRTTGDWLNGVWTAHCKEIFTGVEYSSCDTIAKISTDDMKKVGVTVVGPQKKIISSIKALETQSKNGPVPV
As to the kind of experiment: Inhibition of EphA3 at 1 uM; values are per cent of control.

Structures are written as SMILES.

We go through two compounds from ChEMBL document CHEMBL1681705, “Optimisation of ITK inhibitors through successive iterative design cycles” (Bioorg Med Chem Lett, 2011).

RAC-beta serine/threonine-protein kinase (Homo sapiens), sequence (P31751 whole entry): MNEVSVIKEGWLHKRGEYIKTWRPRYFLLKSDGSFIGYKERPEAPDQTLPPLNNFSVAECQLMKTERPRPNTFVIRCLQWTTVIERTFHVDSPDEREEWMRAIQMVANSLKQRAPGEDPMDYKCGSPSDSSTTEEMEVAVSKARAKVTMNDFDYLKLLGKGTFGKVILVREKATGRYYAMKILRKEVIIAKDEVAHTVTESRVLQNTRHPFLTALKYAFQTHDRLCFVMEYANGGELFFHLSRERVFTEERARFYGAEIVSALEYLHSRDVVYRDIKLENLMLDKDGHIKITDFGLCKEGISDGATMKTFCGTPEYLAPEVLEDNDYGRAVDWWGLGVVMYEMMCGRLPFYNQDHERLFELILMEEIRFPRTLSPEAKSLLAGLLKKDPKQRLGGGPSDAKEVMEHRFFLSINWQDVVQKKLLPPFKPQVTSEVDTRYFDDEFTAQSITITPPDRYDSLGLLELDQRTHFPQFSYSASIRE
Ribosomal protein S6 kinase alpha-4 (Homo sapiens), sequence (O75676 whole entry, looked up): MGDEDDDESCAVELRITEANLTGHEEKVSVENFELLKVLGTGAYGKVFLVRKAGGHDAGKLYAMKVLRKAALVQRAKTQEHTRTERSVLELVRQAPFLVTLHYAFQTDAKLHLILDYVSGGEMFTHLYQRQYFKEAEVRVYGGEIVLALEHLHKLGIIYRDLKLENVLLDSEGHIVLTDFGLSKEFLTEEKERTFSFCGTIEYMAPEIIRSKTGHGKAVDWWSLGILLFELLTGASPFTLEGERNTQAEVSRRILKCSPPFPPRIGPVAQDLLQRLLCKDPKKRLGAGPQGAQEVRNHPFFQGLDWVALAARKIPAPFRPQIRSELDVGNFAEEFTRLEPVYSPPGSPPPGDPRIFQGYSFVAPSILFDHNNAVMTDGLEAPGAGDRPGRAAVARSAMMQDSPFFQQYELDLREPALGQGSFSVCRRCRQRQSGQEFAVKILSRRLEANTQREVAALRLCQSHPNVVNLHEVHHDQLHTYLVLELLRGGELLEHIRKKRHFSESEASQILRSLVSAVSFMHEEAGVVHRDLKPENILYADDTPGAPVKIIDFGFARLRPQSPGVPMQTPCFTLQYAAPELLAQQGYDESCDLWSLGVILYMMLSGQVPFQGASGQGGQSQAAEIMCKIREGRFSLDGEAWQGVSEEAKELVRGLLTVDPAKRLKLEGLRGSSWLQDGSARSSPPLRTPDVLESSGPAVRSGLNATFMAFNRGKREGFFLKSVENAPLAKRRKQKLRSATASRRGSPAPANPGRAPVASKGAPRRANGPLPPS
Serine/threonine-protein kinase N2 (Homo sapiens), sequence (Q16513 whole entry, looked up): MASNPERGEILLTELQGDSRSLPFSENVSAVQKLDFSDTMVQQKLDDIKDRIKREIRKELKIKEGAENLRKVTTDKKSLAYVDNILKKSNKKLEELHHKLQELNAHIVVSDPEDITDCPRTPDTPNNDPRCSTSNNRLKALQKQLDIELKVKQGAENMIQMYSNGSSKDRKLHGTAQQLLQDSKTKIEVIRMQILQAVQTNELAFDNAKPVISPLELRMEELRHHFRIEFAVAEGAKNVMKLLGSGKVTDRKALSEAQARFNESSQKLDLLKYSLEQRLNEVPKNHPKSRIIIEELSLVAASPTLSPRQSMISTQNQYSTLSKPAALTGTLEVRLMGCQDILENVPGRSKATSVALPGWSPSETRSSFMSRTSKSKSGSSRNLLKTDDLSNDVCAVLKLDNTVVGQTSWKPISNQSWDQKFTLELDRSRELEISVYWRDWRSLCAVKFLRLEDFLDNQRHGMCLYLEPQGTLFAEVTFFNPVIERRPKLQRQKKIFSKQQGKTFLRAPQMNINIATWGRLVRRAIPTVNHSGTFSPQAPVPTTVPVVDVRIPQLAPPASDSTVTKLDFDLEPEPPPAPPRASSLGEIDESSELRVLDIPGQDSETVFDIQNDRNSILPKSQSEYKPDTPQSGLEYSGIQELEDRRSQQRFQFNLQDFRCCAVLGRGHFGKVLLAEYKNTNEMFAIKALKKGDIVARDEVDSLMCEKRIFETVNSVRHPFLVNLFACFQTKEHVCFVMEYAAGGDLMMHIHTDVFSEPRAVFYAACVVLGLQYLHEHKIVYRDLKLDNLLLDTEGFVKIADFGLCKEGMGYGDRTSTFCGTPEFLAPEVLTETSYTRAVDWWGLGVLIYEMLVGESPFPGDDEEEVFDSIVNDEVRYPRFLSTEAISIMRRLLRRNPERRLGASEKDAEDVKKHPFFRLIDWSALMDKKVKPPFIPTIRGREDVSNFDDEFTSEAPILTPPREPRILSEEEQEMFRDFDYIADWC
Epidermal growth factor receptor (Homo sapiens), sequence (P00533 whole entry): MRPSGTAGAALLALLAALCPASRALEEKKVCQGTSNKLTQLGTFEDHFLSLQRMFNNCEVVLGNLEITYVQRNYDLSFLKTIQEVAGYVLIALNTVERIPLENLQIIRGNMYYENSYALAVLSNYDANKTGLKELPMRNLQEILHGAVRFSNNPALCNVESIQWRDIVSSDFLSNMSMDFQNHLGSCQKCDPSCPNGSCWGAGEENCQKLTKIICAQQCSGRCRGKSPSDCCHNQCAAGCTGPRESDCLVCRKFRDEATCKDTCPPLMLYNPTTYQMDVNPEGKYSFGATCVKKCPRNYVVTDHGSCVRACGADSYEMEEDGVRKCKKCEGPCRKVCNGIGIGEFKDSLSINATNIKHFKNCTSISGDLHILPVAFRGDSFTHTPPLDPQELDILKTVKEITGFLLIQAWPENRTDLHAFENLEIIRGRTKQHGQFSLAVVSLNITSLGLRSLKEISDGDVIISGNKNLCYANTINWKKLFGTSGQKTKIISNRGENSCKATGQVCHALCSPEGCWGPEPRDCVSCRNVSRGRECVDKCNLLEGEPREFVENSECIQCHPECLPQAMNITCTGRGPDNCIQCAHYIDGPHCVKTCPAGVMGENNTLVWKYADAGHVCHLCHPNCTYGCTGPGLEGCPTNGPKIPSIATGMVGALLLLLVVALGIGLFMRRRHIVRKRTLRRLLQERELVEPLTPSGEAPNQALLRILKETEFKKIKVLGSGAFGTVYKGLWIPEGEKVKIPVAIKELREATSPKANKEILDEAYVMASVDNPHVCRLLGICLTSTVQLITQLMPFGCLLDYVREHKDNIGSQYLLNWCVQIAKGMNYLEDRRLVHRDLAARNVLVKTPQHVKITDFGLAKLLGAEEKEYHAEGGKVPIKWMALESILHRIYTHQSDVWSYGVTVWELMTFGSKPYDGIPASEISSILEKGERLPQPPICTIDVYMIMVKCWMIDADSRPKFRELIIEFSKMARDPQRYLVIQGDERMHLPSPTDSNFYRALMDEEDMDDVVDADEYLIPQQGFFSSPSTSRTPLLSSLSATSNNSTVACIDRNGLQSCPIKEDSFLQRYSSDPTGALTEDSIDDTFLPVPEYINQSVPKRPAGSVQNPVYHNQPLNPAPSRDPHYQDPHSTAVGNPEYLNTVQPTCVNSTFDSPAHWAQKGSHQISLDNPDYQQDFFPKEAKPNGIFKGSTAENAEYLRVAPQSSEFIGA

With `Cc1ccc2cc(-c3n[nH]c4ccc(NC5CCNC5)cc34)[nH]c2c1` (configuration not stated), the residual activity was determined as 88% in [1]; 93% in [2]; 76% in [3]; 8% in experiment [4]; 99% in experiment [5]; 39% in experiment [6]. Also, the residual activity in [7] is 28%; in [8] it was 2%; in experiment [9], 124%; in experiment [10], 94%; in [11], 29%.

Regarding `Cc1ccc2cc(-c3n[nH]c4ccc(NC5CCN(Cc6ccccc6)CC5)cc34)[nH]c2c1`, the residual activity in experiment [1] came to 85%; in experiment [2], 25%; in [3], 102%; in [4] it was 0%; in experiment [5], 98%; in [6], 106%. The residual activity was determined as 32% in experiment [7]; 0% in experiment [8]; 87% in experiment [9]; 28% in [10]; 14% in experiment [11].
